Source: patent US20260242320A1, “USE OF CANNABIDIOL DERIVATIVE IN PREPARATION OF MEDICAMENT” (priority 2023, published 2026)
Entries after “also recorded” stand apart in the source; their conditions may differ.

How the values were obtained:
[1] = target: PKM2 protein (Homo sapiens, UniProt P14618); assay: Fluorescence titration of purified PKM2; format: binding; conditions: PKM2 0.5 μM
Experimental: PKM2 protein (0.5 μM) was titrated with increasing concentrations of CIAC001, and the fluorescence intensity (λex 280 nm; λem 337 nm) was recorded by a fluorescence spectrophotometer (Cary Eclipse, Agilent Technologies Inc., USA). Appropriate controls were subtracted from the spectra obtained from the samples. The data were fitted by the nonlinear least squares method using Equation 8, derived from equations 1-7.
Because [LP2]^3 is far less than (LT+PT)×[LP2]^2, Equation 6 can be simplified as Equation 7, allowing derivation of Equation 8: […]
where F is the measured fluorescence; F0 is the initial fluorescence of PKM2 in the absence of CIAC001; FPL is an adjustable parameter for protein-ligand complex molar fluorescence; KD is the dissociation constant; LT is the total concentration of CIAC001; and PT is the total PKM2 concentration. The stoichiometry n was fitted according to the equation […].

[2] = tested on: LPS-induced proinflammatory factor nitric oxide (NO) in immunocompetent BV-2 cells; assay: NO assay: inhibition of LPS-induced NO overproduction in BV-2 cells; format: cell-based; conditions: Mus musculus; BV-2 cells, LPS 200 ng/mL, 24 h; read-out: Antineuroinflammatory activity (IC50 inhibiting LPS-induced NO)
Experimental: BV-2 cells were seeded at a density of 5×10^4 cells per milliliter in 96-well plates. After 24 h incubation, the media was removed and changed to DMEM without FBS and penicillin-streptomycin. LPS (200 ng/mL) and different concentrations of compounds were added. After 24 h treatment, 100 μL of media was transferred to flat black 96-well micro fluor plates, and then, 10 μL of 0.05 mg/mL 2,3-diaminonaphthalene was added and incubated in the dark for 15 min. 5 μL of NaOH (3 M) was subsequently added to each well to quench the reaction. NO inhibition ratio was analyzed by a SYNERGY H1 Microplate Reader (BioTek Instruments, Carlsbad, CA, USA) with excitation at 360 nm and emission at 430 nm. The fluorescence value of the LPS-treated group was set as 100%.

[3] = tested on: LPS-activated BV-2 cells; assay: Cell morphology determination; format: cell-based; conditions: 10 μM, LPS 200 ng/ml, 24 h
Experimental: BV-2 cells were seeded at a density of 2.5×10^5 cells per milliliter in 6-well plates and incubated for 12 h. Cells were incubated with CIAC001 (10 μM) in the absence or presence of LPS (200 ng/ml) for 24 h. The images of BV-2 cells were taken with an inverted microscope (Ts2-FL, Nikon Corporation, Tokyo, Japan) and analyzed by ImageJ. Statistic data are counted in at least three hundred cells.

[4] = target: PKM2 (Mus musculus, UniProt P52480); assay: Pull-down with probes 19e/19f and western blotting
Sequence of PKM2 (P52480 whole entry): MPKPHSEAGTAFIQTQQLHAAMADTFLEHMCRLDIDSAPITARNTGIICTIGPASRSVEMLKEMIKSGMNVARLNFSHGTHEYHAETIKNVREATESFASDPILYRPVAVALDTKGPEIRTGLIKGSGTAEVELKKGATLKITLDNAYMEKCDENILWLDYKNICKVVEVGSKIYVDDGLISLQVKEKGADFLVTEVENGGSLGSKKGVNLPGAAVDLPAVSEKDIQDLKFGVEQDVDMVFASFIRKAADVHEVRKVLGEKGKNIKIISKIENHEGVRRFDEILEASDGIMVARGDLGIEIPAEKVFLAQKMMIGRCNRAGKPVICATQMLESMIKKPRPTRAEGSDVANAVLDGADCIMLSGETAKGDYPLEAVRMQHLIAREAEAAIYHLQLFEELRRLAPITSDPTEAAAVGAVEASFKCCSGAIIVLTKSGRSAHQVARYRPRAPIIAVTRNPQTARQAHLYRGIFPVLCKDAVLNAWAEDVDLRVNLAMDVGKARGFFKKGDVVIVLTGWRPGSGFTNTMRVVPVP
Experimental: The protein samples were separated by SDS-PAGE and transferred to PVDF membranes. The membranes were blocked with 5% nonfat dry milk for 1 h. The membranes were incubated with the corresponding primary antibody at 4° C. overnight and then washed with Tris-buffered saline with 0.1% Tween 20 (TBST) for 5 min each time and incubated for 1 h at room temperature with the secondary antibody-HRP conjugate. After washing with TBST, the membranes were developed using Super-Signal West Pico Chemiluminescent Substrate and visualized by a Tanon-5200 Multi. ImageJ was used for densitometric analysis.
BV-2 cells were treated with the probe Compound 19e (5 μM) or CIAC001 (20 μM) for 2 h at 37° C.; then, cells were transferred on ice and irradiated with 365 nm UV light for 30 min. Cells were washed with 3 mL PBS twice and lysed by buffer containing 250 mM HEPES (pH=7.9), 1.5 M KCl, 5 mM EDTA, 0.5% v/v NP-40, and 1% v/v protease inhibitor cocktail. The cell lysate was centrifuged at 4° C. and 12,000 g for 10 min, and the protein concentration was adjusted to 1 mg/mL by the BCA assay kit. […]
BV-2 cells were scraped with PBS; then, cells were lysed with buffer containing 250 mM HEPES (pH=7.9), 1.5 M KCl, 5 mM EDTA, 0.5% v/v NP-40, and 0.025% v/v protease inhibitor cocktail and incubated on ice for 30 min. […] The lysate was subjected to a click reaction as described above and analyzed by SDS-PAGE. […]

[5] = target: T1, PKM2 tetramer / monomer (Mus musculus, UniProt P52480); assay: Western blot of PKM2 tetramer and monomer in LPS-treated cells; format: cell-based
T1 construct: endogenous in cells; host or cells: BV-2 cells
T1 sequence (P52480 whole entry): as above
Source text: ImageJ was used for densitometric analysis.

[6] = tested on: morphine-conditioned mice; assay: Morphine-induced conditioned place preference (CPP); format: in vivo; conditions: 0.2 mg/kg i.p.
Experimental: Conditional place conditioning (CPP) was conducted using the classic 10-consecutive-day procedure. On days 1 and 2, each mouse was separately placed into the CPP apparatus for 15 min to habituate the apparatus. On day 3 (preconditioning), the time spent in each compartment was recorded to determine any preference for the two compartments. Mice were divided into three groups: vehicle group, 7.5 mg/kg morphine, as well as 7.5 mg/kg morphine+0.2 mg/kg CIAC001. During the conditioning phase, mice were separately isolated in the compartment for 30 min on 6 consecutive days. Mice were given morphine on days 4, 6, and 8, and vehicle (5 mL/kg) was administered on days 5, 7, and 9. The postconditioning phase was carried out 24 h after the last conditioning session. Each mouse was placed in the apparatus and explored freely, and the time spent in each compartment was recorded for 15 min. The CPP score(s) was calculated using the time spent in the drug-paired compartment minus the time spent in the vehicle-paired compartment.

[7] = tested on: BV-2 cells; assay: Cellular ATP assay; format: cell-based; conditions: 10 μM, 2 h
Experimental: BV-2 cells were seeded at a density of 5×10^5 cells per well in 6-well plates and incubated for 24 h. BV-2 cells were treated with 10 μM CIAC001 or 10 μM Compound 19b for 2 h. Cellular ATP was measured by an enhanced ATP assay kit (S0027-4, Beyotime Biotechnology Co., Ltd., Shanghai, China).

[8] = tested on: hippocampus of transgene mice; assay: Potential of hippocampus (LTP) measurement; format: in vivo
Experimental: Mouse brains were quickly removed following anesthetization using isoflurane and euthanasia by cervical dislocation and immersed in pre-chilled artificial cerebrospinal fluid (ACSF) for 3 minutes while continuously supplying O2 to the fluid to maintain brain activity. Then, the brain was then quickly fixed with glue onto a platform of a vibratome (with the olfactory bulb facing up and the hindbrain facing down) and placed in well-oxygenated, pre-chilled ACSF. The brain was then sliced at 300 μm per slice with a cutting speed of 0.14 mm/s, starting from the appearance of the hippocampus. The collected brain slices were divided into left and right hemispheres and incubated in an O2-filled water bath at 32° C. for 2 hours. Afterwards, computer software used for recording was adjusted to ensure a stable baseline. The incubated brain slices were placed in the center of an electrode, with the brightest line of the CA1 region in the hippocampus spanning diagonally across the baseline, and fixed with a grid and iron block inside the recording device. Each potential in the electrode was stimulated to find the optimal stimulation point. High-frequency stimulation was then performed at the optimal point. Software was then used to record the changes in electrical potential at each electrode point.

[9] = tested on: lactate dehydrogenase A (LDHA) mRNA; assay: LDHA mRNA in LPS-treated BV-2 cells; format: cell-based; conditions: 3 hours
Experimental: Total RNA was extracted from cells or mouse brains using the RNeasy Mini Kit. Isolated RNA was reverse-transcribed into cDNA using an RT2 Easy First Strand cDNA Synthesis Kit following the manufacturer's protocols. PCR amplification was conducted using synthetic primers, SYBR Green, and a TOptical Real-Time qPCR Thermal Cycler (Analytik Jena, Thuringia, Germany). The data were analyzed by the […] method, and Rpl711 or Rpl27 was used as an internal control.

Sequence of PKM2 protein (P14618 whole entry, species assumed): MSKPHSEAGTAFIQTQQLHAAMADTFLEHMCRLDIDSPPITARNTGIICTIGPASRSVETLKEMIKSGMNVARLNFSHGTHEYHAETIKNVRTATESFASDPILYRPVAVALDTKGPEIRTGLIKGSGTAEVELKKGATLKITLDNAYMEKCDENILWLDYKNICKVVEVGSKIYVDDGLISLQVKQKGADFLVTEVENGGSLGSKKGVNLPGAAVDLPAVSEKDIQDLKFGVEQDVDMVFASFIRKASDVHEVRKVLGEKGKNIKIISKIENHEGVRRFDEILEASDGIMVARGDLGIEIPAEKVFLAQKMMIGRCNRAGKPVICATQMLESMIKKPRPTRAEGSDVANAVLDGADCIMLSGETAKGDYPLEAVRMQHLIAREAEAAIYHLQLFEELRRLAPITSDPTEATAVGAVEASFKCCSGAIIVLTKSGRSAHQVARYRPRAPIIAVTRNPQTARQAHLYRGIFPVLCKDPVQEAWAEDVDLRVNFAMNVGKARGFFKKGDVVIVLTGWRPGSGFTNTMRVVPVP

C=C(C)[C@@H]1CCC(C)=C[C@H]1c1c(O)cc(C(C)n2nccn2)cc1O (stereo partly drawn) [CIAC001, (1′R,2′R)-4-(1-(2H-1,2,3-Triazol-2-yl)ethyl)-5′-methyl-2′-(prop-1-en-2-yl)-1′,2′,3′,4′-tetrahydro-[1,1′-biphenyl]-2,6-diol]
stoichiometry of CIAC001-PKM2 interaction [1]: 0.54±0.07
Kd ([1]; intrinsic fluorescence quenching, read-out: dissociation constant KD): 2.2 ± 0.2 µM
IC50 [2]: 2.5 ± 0.7 µM
LPS-induced morphological changes of microglia [3]: considerably reversed
binding of Compound 19e to PKM2 in presence of free CIAC001 ([4]; high concentrations of free CIAC001): competitively inhibited
binding with PKM (PKM2 vs PKM1) in situ and in vitro ([4]; pull-down, western blot, BV-2): directly binds with PKM2 rather than PKM1
LPS-induced decline of the PKM2 tetramer [5]: reversed the LPS-induced decline of the PKM2 tetramer
LPS-induced rise of the PKM2 monomer [5]: inhibit the LPS-induced rise of the PKM2 monomer; also recorded: inhibited LPS-induced rise of the PKM2 monomer
expression of morphine-induced CPP [6]: substantially decreased; also recorded: ameliorated
ATP level [7]: increase the ATP level
increase of hippocampal potential [8]: ~500%
LPS-induced LDHA mRNA overexpression [9]: significantly inhibited
